Measured values published in patent US20040047823A1, “Use of ergothioneine and/or its derivatives as an anti-pollution agent” (priority 2003, published 2004).

Tested on: human keratinocytes
Assay: Protective effect against ozone-induced peroxides in human keratinocytes (2,7-dichlorofluorescine diacetate / DCF fluorescence)
Assay type: cell-based
Settings: for % fluorescence observed ±SEM, expressed as % relative to the unprotected controls: ergothioneine 1 mM (24 h pretreatment at 0.5 mM), n=4; for drop in induced stress: ergothioneine 1 mM
Method: In a first stage, human keratinocytes obtained from plastic surgeries, inoculated beforehand on D-3 into a 48-well dish at a rate of 25 000 cells/cm^2, are pretreated with ergothioneine dissolved in the culture medium for 24 hours, at a final concentration of 0.5 mM. A marker, 0,2,7-dichlorofluorescine diacetate, is then incorporated: after removing the ergothioneine solution and rinsing with PBS, the human keratinocytes are placed in contact for 30 minutes with a solution of 2,7-dichlorofluorescine diacetate (320 μM in phosphate-buffered saline PBS) at a rate of 500 μl per well, and are then rinsed again with PBS. The cells are then exposed to ozone: after placing the cells in contact with a fresh solution of ergothioneine in PBS at a concentration of 1 mM, at a rate of 100 μl per well, the cells are exposed to ozone in an incubator (37° C., humid atmosphere) with an ozone concentration of 10 ppm. The effects induced by the ozone are then measured by measuring the appearance of 2,7-dichloroflorescine (DCF: excitation at 485 nm and emission at 530 nm) after different exposure times: 0, 5, 10 and 20 minutes. Four independent experiments were performed and each measurement was repeated six times. The appearance of ozone-generated peroxides in the cell is reflected by an increase in the fluorescence. For each time, the fluorescence values of the unprotected controls are set at 100%. The results, in the presence of ergothioneine, are then expressed relative to this control value. A reduction in this value indicates a protective effect of the extract.

C[N+](C)(C)[C@@H](Cc1c[nH]c(=S)[nH]1)C(=O)[O-] [ergothioneine]
% fluorescence observed ±SEM, expressed as % relative to the unprotected controls (5 min. of contact with ozone 10 ppm): 18.9 ± 2.4%
drop in induced stress (5 minutes of exposure to ozone 10 ppm): 81.1%
% fluorescence observed ±SEM, expressed as % relative to the unprotected controls (10 min. of contact with ozone 10 ppm): 25.9 ± 3.8%
drop in induced stress (10 minutes of exposure to ozone 10 ppm): 74.1%
% fluorescence observed ±SEM, expressed as % relative to the unprotected controls (20 min. of contact with ozone 10 ppm): 51.4 ± 10.2%
drop in induced stress (20 minutes of exposure to ozone 10 ppm): 48.6%
